Measured values published in patent US12280023B2, “Fluorophenyl beta-hydroxyethylamines and their use in the treatment of hyperglycaemia” (ATROGI AB, priority 2017, dated 2025).
Where a name gives a salt, the structure may show the parent alone.

Experiments:
[1] = tested on: L6-myotubes; experiment: Glucose uptake (3H-2-deoxy-glucose) in differentiated L6-myotubes; format: cell-based; conditions: agonist final concentration 1×10^−5, 50 nM 3H-2-deoxy-glucose, relative to isoproterenol, read-out: Biological example 1: glucose uptake activity compared to that of isoproterenol
Experimental: (§1) L6-myoblasts were grown in Dulbecco's Modified Eagle's Medium (DMEM) containing 4.5 g/l glucose supplemented with 10% fetal bovine serum, 2 mM L-Glutamine, 50 U/ml penicillin, 50 μg/ml streptomycin and 10 mM HEPES. Cells were plated at 1×10^5 cells per ml in 24-well plates. After reaching 90% confluence the cells were grown in medium containing 2% FBS for 7 days where upon cells differentiated into myotubes.
Differentiated L6-myotubes were serum-starved over night in medium containing 0.5% fatty-acid free BSA and stimulated with agonist, final concentration 1×10^−5. After 1 h 40 min cells were washed with warm, glucose free medium or PBS and another portion of agonist was added to glucose free medium. After 20 min the cells were exposed to 50 nM ^3H-2-deoxy-glucose for another 10 min before washed in ice cold glucose free medium or PBS and lysed in 0.2 M NaOH for 1 h in 60° C.

[2] = tested on: Intracellular cAMP levels; experiment: Measurement of intracellular cAMP levels in differentiated L6 cells; format: cell-based; conditions: Rattus norvegicus, L6, 0.25 h, agonist final concentration 1×10^−5, 15 min, alpha screen cAMP kit, relative to isoproterenol, read-out: Biological example 2: intracellular cAMP activity compared to that of isoproterenol
Experimental: as §1
Differentiated cells were serum-starved over night and stimulated with agonist, final concentration 1×10^−5, for 15 min in stimulation buffer (HBSS supplemented with 1% BSA, 5 mM HEPES and 1 mM IBMX, pH 7.4). The medium was then aspirated and to end the reaction 100 μL of 95% EtOH was added to each well of a 24-well plate and cells were kept in −20° C. over night. The EtOH was let to evaporate and 500 μL of lysis buffer (1% BSA, 5 mM HEPES and 0.3% Tween-20, pH 7.4) was added to each well before put in −80° C. for 30 min and then kept in −20° C. Intracellular cAMP levels were detected using an alpha screen cAMP kit (6760635D from Perkin Elmer). The activity for each compound is compared to that of isoproterenol.

CCCCNCC(O)c1cc(F)cc(F)c1 (centres unmarked) [Example 1, 2-(Butylamino)-1-(3,5-difluorophenyl)ethan-1-ol]
Emax [1]: 50 to 75% | Emax [2]: < 25%

CCCCNCC(O)c1ccc(F)c(F)c1 (centres unmarked) [Example 2, 2-(Butylamino)-1-(3,4-difluorophenyl)ethan-1-ol]
Emax [1]: 50 to 75% | Emax [2]: < 25%

CCCCNC[C@H](O)c1ccc(F)cc1 [Example 3, (R)-2-(Butylamino)-1-(4-fluorophenyl)ethan-1-ol]
Emax [1]: 25 to 50% | Emax [2]: < 25%

CCCCNC[C@H](O)c1cccc(F)c1 [Example 4, (R)-2-(Butylamino)-1-(3-fluorophenyl)ethan-1-ol]
Emax [1]: > 75% | Emax [2]: < 25%

CC(C)(C)NC[C@H](O)c1cccc(F)c1 [Example 5, (R)-2-(tert-Butylamino)-1-(3-fluorophenyl)ethan-1-ol]
Emax [1]: > 75% | Emax [2]: < 25%

CCCCNCC(O)c1cc(F)c(N)c(F)c1 (centres unmarked) [Example 6, 1-(4-Amino-3,5-difluorophenyl)-2-(butylamino)ethan-1-ol]
Emax [1]: > 75% | Emax [2]: > 75%

CCCCNCC(O)c1ccc(F)c(N)c1F (centres unmarked) [Example 7, 1-(3-Amino-2,4-difluorophenyl)-2-(butylamino)ethan-1-ol]
Emax [1]: > 75% | Emax [2]: < 25%

CCCCNCC(O)c1ccc(F)c(NC(C)=O)c1F (centres unmarked) [Example 8, N-(3-(2-(Butylamino)-1-hydroxyethyl)-2,6-difluorophenyl)acetamide]
Emax [1]: 25 to 50% | Emax [2]: < 25%

CCC[C@@H](C)NC[C@H](O)c1ccc(F)cc1 [Example 10, (R)-1-(4-Fluorophenyl)-2-(((R)-pentan-2-yl)amino)ethan-1-ol]
Emax [1]: 50 to 75% | Emax [2]: < 25%

CCC[C@H](C)NC[C@H](O)c1ccc(F)cc1 [Example 11, (R)-1-(4-Fluorophenyl)-2-(((S)-pentan-2-yl)amino)ethan-1-ol]
Emax [1]: 25 to 50% | Emax [2]: < 25%

CCC[C@@H](C)NC[C@H](O)c1cccc(F)c1 [Example 12, (R)-1-(3-fluorophenyl)-2-(((R)-pentan-2-yl)amino)ethan-1-ol]
Emax [1]: > 75% | Emax [2]: < 25%

CCC[C@H](C)NC[C@H](O)c1cccc(F)c1 [Example 13, (R)-1-(3-fluorophenyl)-2-(((S)-pentan-2-yl)amino)ethan-1-ol]
Emax [1]: 50 to 75% | Emax [2]: < 25%

CCCC(C)(C)NC[C@H](O)c1cccc(F)c1 [Example 14, (R)-1-(3-Fluorophenyl)-2-((2-methylpentan-2-yl)amino)ethan-1-ol]
Emax [1]: > 75% | Emax [2]: < 25%

CC(C)(C)NC[C@H](O)c1cccc(F)c1F [Example 15, (R)-2-(tert-Butylamino)-1-(2,3-difluorophenyl)ethan-1-ol]
Emax [1]: > 75% | Emax [2]: 25 to 50%

CCCCNC[C@H](O)c1cccc(F)c1F [Example 16, (R)-2-(Butylamino)-1-(2,3-difluorophenyl)ethan-1-ol]
Emax [1]: > 75% | Emax [2]: < 25%

CC(C)(C)NC[C@H](O)c1ccccc1F [Example 17, (R)-2-(tert-Butylamino)-1-(2-fluorophenyl)ethan-1-ol]
Emax [1]: 50 to 75% | Emax [2]: < 25%

CCCCNC[C@H](O)c1ccccc1F [Example 18, (R)-2-(Butylamino)-1-(2-fluorophenyl)ethan-1-ol]
Emax [1]: > 75% | Emax [2]: < 25%

CC(C)(C)NC[C@H](O)c1ccc(F)cc1O [Example 19, (R)-2-(2-(tert-Butylamino)-1-hydroxyethyl)-5-fluorophenol acetate]
Emax [1]: 50 to 75% | Emax [2]: < 25%

CCCCNC[C@H](O)c1ccc(F)cc1O [Example 20, (R)-2-(2-(Butylamino)-1-hydroxyethyl)-5-fluorophenol acetate]
Emax [1]: > 75% | Emax [2]: < 25%

CC1(NC[C@H](O)c2cccc(F)c2)CCC1 [Example 21, (R)-1-(3-fluorophenyl)-2-((1-methylcyclobutyl)amino)ethan-1-ol]
Emax [1]: > 75% | Emax [2]: 25 to 50%

CC1(NC[C@H](O)c2cccc(F)c2)CC1 [Example 22, (R)-1-(3-fluorophenyl)-2-((1-methylcyclopropyl)amino)ethan-1-ol]
Emax [1]: > 75% | Emax [2]: < 25%

CC(C)(C)NC[C@H](O)c1ccc(F)c(O)c1 [Example 23, (R)-5-(2-(tert-Butylamino)-1-hydroxyethyl)-2-fluorophenol acetate]
Emax [1]: > 75% | Emax [2]: 50 to 75%

CCCCNC[C@H](O)c1ccc(F)c(O)c1 [Example 24, (R)-5-(2-(Butylamino)-1-hydroxyethyl)-2-fluorophenol acetate]
Emax [1]: > 75% | Emax [2]: < 25%

CC(C)(C)NC[C@H](O)c1cccc(O)c1F [Example 25, (R)-3-(2-(tert-Butylamino)-1-hydroxyethyl)-2-fluorophenol]
Emax [1]: 50 to 75% | Emax [2]: 50 to 75%

CCCCNC[C@H](O)c1cccc(O)c1F [Example 26, (R)-3-(2-(Butylamino)-1-hydroxyethyl)-2-fluorophenol]
Emax [1]: > 75% | Emax [2]: 25 to 50%

CC(C)(C)NC[C@H](O)c1cccc(N)c1F [Example 27, (R)-1-(3-Amino-2-fluorophenyl)-2-(tert-butylamino)ethan-1-ol]
Emax [1]: > 75% | Emax [2]: 25 to 50%

CCCCNC[C@H](O)c1cccc(N)c1F [Example 28, (R)-1-(3-Amino-2-fluorophenyl)-2-(butylamino)ethan-1-ol dihydrochloride]
Emax [1]: 50 to 75% | Emax [2]: < 25%

CC(C)(C)CNC[C@H](O)c1cccc(F)c1 [Example 29, (R)-1-(3-Fluorophenyl)-2-(neopentylamino)ethan-1-ol hydrochloride]
Emax [1]: 25 to 50% | Emax [2]: < 25%

O[C@@H](CNC1(C(F)(F)F)CC1)c1cccc(F)c1 [Example 30, (R)-1-(3-fluorophenyl)-2-O-(trifluoromethyl)cyclopropyl)amino)ethan-1-ol hydrochloride]
Emax [1]: 50 to 75% | Emax [2]: < 25%

CC(C)(C)NC[C@H](O)c1ccc(F)c(N)c1F [Example 31, (R)-1-(3-amino-2,4-difluorophenyl)-2-(tert-butylamino)ethan-1-ol hydrochloride]
Emax [1]: > 75% | Emax [2]: < 25%

Cc1c(F)cccc1[C@@H](O)CNC(C)(C)C [Example 32, (R)-2-(tert-butylamino)-1-(3-fluoro-2-methylphenyl)ethan-1-ol]
Emax [1]: > 75% | Emax [2]: < 25%
